From ChEMBL document CHEMBL1201862, “PubChem BioAssay data set” (2004)
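Following 48 hours of exposure in 96-well plates, responses at five concentrations were used to interpolate endpoints linearly. GI50 = concentration required for 50% inhibition of growth.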 The source made the active and inactive calls. No stated cut-off is given here; in the data, active = GI50 up to about 1.1 µM and inactive = higher.

Key:
Assay in all cases: NCI-60 cell line screen, 48 h
NCI-H522 = tested on: NCI-H522
OVCAR-8 = tested on: OVCAR-8
CCRF-CEM = tested on: CCRF-CEM
SK-MEL-28 = tested on: SK-MEL-28
DU-145 = tested on: DU-145
NCI/ADR-RES = tested on: NCI/ADR-RES
K562 = tested on: K562
CAKI-1 = tested on: CAKI-1
IGROV-1 = tested on: IGROV-1
A549 = tested on: A549
MDA-MB-231 = tested on: MDA-MB-231
MDA-N = tested on: MDA-N
SNB-75 = tested on: SNB-75
NCI-H226 = tested on: NCI-H226
MDA-MB-435 = tested on: MDA-MB-435
EKVX = tested on: EKVX
HOP-92 = tested on: HOP-92
LOX IMVI = tested on: LOX IMVI
SW-620 = tested on: SW-620
SN12C = tested on: SN12C
SK-MEL-5 = tested on: SK-MEL-5
RXF 393 = tested on: RXF 393
MOLT-4 = tested on: MOLT-4
HCT-116 = tested on: HCT-116
SNB-19 = tested on: SNB-19
HL-60 = tested on: HL-60
KM12 = tested on: KM12
UACC-62 = tested on: UACC-62
T47D = tested on: T47D
786-0 = tested on: 786-0
HT-29 = tested on: HT-29
Hs-578T = tested on: Hs-578T
SF-268 = tested on: SF-268
HCT-15 = tested on: HCT-15
SK-OV-3 = tested on: SK-OV-3
ACHN = tested on: ACHN
TK-10 = tested on: TK-10
Malme-3M = tested on: Malme-3M
M14 = tested on: M14
NCI-H23 = tested on: NCI-H23
BT-549 = tested on: BT-549
RPMI-8226 = tested on: RPMI-8226
COLO 205 = tested on: COLO 205
U-251 = tested on: U-251
SR = tested on: SR
OVCAR-5 = tested on: OVCAR-5
SF-295 = tested on: SF-295
OVCAR-3 = tested on: OVCAR-3
SK-MEL-2 = tested on: SK-MEL-2
PC-3 = tested on: PC-3
UO-31 = tested on: UO-31
OVCAR-4 = tested on: OVCAR-4
HOP-62 = tested on: HOP-62
UACC-257 = tested on: UACC-257
A498 = tested on: A498
HCC 2998 = tested on: HCC 2998
NCI-H460 = tested on: NCI-H460

Measured: GI50

Oc1ccc2ccccc2c1/N=N/c1ccc(Cl)cc1
> 100 µM: HCT-15
inactive: NCI-H522 > 100 µM | OVCAR-8 > 100 µM | CCRF-CEM > 100 µM | SK-MEL-28 > 100 µM | DU-145 > 100 µM | NCI/ADR-RES > 100 µM | K562 > 100 µM | CAKI-1 > 100 µM | IGROV-1 > 100 µM | A549 > 100 µM | MDA-MB-231 26.9 µM | MDA-N > 100 µM | SNB-75 > 100 µM | NCI-H226 > 100 µM | MDA-MB-435 > 100 µM | EKVX > 100 µM | HOP-92 > 100 µM | LOX IMVI 24.8 µM | SW-620 > 100 µM | SN12C > 100 µM | SK-MEL-5 > 100 µM | RXF 393 > 100 µM | MOLT-4 > 100 µM | HCT-116 51.9 µM | SNB-19 > 100 µM | HL-60 > 100 µM | KM12 > 100 µM | UACC-62 > 100 µM | T47D > 100 µM | 786-0 34.6 µM | HT-29 > 100 µM | Hs-578T > 100 µM | SF-268 > 100 µM | SK-OV-3 > 100 µM | ACHN > 100 µM | TK-10 > 100 µM | Malme-3M > 100 µM | M14 > 100 µM | NCI-H23 > 100 µM | BT-549 > 100 µM | RPMI-8226 > 100 µM | COLO 205 53 µM | U-251 > 100 µM | SR 39.5 µM | OVCAR-5 > 100 µM | SF-295 > 100 µM | OVCAR-3 > 100 µM | SK-MEL-2 > 100 µM | PC-3 > 100 µM | UO-31 > 100 µM | OVCAR-4 > 100 µM | HOP-62 > 100 µM | UACC-257 > 100 µM

CNS(=O)(=O)c1ccc2c(c1)/C(=C1/Nc3ccccc3C1=O)C(=O)N2
49.4 µM: HCT-15
inactive: NCI-H522 > 100 µM | CCRF-CEM 30.8 µM | SK-MEL-28 > 100 µM | DU-145 > 100 µM | NCI/ADR-RES 67.8 µM | K562 > 100 µM | CAKI-1 > 100 µM | IGROV-1 18.7 µM | A498 > 100 µM | A549 > 100 µM | MDA-MB-231 2.63 µM | MDA-N > 100 µM | SNB-75 > 100 µM | NCI-H226 > 100 µM | MDA-MB-435 > 100 µM | EKVX > 100 µM | LOX IMVI > 100 µM | SW-620 > 100 µM | SN12C > 100 µM | SK-MEL-5 5.2 µM | HCC 2998 > 100 µM | RXF 393 > 100 µM | MOLT-4 39.6 µM | HCT-116 > 100 µM | SNB-19 20.9 µM | HL-60 14.6 µM | UACC-62 > 100 µM | T47D > 100 µM | HT-29 > 100 µM | Hs-578T 3.41 µM | SF-268 > 100 µM | SK-OV-3 92.9 µM | ACHN > 100 µM | TK-10 > 100 µM | Malme-3M > 100 µM | M14 > 100 µM | NCI-H23 9.4 µM | BT-549 66.4 µM | RPMI-8226 > 100 µM | COLO 205 > 100 µM | U-251 5.04 µM | OVCAR-5 > 100 µM | SF-295 > 100 µM | OVCAR-3 > 100 µM | SK-MEL-2 > 100 µM | PC-3 > 100 µM | NCI-H460 > 100 µM | UO-31 > 100 µM | HOP-62 > 100 µM | UACC-257 > 100 µM
